Experimental data taken from ChEMBL document CHEMBL3792323, “Piperidine derivatives as nonprostanoid IP receptor agonists” (Bioorg Med Chem Lett, 2016).

Key:
[1] = Cmax in fasted dog at 2.5 mg/kg, po; type: ADME, organism-based, Canis lupus familiaris; design: dose 2.5 mg/kg, route oral; settings: in vivo
[2] = Oral bioavailability in fasted dog at 2.5 mg/kg; type: ADME, organism-based, Canis lupus familiaris; settings: in vivo
Prostacyclin receptor = Prostacyclin receptor (Homo sapiens, UniProt P43119); experiment: Binding affinity to human IP receptor by competitive binding assay
Chain of Prostacyclin receptor (P43119 whole entry): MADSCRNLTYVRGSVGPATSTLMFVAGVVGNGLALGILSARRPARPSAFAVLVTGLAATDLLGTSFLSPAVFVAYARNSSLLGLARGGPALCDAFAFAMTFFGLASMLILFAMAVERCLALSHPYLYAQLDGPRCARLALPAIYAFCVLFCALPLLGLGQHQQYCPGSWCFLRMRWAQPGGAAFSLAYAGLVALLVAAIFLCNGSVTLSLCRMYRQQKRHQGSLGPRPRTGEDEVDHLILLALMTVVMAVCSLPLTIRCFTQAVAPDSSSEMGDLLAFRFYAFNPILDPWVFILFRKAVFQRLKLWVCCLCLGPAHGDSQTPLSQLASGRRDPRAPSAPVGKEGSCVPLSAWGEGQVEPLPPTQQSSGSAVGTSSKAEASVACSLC

[3] = biological target: T1, Prostaglandin E2 receptor EP1 subtype (Homo sapiens, UniProt P34995); experiment: Binding affinity to human EP1 receptor by competitive binding assay
T1 sequence (P34995 whole entry): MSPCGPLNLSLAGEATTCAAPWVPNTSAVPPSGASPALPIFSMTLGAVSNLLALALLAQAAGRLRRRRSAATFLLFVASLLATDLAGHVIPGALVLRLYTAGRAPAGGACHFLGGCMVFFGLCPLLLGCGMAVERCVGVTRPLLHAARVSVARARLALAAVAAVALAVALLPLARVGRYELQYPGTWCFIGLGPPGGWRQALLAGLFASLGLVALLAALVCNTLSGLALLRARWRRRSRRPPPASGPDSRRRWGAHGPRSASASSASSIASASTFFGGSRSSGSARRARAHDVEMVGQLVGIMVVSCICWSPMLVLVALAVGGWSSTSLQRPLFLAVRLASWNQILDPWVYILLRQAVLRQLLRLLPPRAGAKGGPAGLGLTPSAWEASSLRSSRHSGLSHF

[4] = biological target: Prostaglandin E2 receptor EP2 subtype (Homo sapiens, UniProt P43116); experiment: Binding affinity to human EP2 receptor by competitive binding assay
Chain of Prostaglandin E2 receptor EP2 subtype (P43116 whole entry): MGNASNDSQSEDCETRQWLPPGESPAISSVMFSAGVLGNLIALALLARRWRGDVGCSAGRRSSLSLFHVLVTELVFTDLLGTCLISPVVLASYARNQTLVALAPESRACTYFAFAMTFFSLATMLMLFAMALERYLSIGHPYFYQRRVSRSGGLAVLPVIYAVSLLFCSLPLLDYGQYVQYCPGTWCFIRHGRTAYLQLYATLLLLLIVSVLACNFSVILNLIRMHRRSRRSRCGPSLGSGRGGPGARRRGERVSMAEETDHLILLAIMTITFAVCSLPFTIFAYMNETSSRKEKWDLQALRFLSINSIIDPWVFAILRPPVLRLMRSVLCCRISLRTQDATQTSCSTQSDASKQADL

[5] = biological target: T2, Prostaglandin E2 receptor EP3 subtype (Homo sapiens, UniProt P43115); experiment: Binding affinity to human EP3 receptor by competitive binding assay
T2 sequence (P43115 whole entry): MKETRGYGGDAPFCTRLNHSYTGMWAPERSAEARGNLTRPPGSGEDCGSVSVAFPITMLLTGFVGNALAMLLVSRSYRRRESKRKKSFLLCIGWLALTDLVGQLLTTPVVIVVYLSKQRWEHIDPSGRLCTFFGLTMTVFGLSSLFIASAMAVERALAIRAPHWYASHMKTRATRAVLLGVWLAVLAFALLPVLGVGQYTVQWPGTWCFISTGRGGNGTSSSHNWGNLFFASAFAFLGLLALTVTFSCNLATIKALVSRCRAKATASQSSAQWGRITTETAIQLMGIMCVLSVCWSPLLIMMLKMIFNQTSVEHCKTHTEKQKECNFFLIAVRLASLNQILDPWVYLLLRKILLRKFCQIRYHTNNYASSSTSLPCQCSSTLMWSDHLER

[6] = biological target: Prostaglandin E2 receptor EP4 subtype (Homo sapiens, UniProt P35408); experiment: Binding affinity to human EP4 receptor by competitive binding assay
Chain of Prostaglandin E2 receptor EP4 subtype (P35408 whole entry): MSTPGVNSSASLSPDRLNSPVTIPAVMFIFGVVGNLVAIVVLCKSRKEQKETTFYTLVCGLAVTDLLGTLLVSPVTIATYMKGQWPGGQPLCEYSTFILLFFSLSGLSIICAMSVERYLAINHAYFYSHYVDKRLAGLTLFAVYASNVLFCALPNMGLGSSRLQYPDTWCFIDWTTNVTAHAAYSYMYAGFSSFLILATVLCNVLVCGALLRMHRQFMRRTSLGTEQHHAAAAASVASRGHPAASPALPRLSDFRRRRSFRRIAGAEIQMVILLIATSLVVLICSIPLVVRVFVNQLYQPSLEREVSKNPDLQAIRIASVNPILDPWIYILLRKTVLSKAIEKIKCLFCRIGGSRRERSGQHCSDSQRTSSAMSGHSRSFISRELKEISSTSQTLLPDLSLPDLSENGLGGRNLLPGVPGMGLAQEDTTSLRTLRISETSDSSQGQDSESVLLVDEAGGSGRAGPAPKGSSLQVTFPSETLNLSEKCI

[7] = biological target: Prostaglandin F2-alpha receptor (Homo sapiens, UniProt P43088); experiment: Binding affinity to human FP receptor by competitive binding assay
Chain of Prostaglandin F2-alpha receptor (P43088 whole entry): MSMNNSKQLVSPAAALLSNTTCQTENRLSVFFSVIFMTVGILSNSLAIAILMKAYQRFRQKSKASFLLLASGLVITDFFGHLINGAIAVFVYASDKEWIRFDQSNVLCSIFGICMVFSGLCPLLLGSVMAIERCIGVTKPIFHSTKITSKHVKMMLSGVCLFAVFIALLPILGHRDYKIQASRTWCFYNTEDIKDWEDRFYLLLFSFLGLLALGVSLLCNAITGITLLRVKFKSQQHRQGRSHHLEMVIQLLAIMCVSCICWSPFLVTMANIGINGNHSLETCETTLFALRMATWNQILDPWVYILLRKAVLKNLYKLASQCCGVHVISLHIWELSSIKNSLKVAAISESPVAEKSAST

Thromboxane A2 receptor = biological target: T3, Thromboxane A2 receptor (Homo sapiens, UniProt P21731); experiment: Binding affinity to human TP receptor by competitive binding assay
T3 sequence (P21731 whole entry): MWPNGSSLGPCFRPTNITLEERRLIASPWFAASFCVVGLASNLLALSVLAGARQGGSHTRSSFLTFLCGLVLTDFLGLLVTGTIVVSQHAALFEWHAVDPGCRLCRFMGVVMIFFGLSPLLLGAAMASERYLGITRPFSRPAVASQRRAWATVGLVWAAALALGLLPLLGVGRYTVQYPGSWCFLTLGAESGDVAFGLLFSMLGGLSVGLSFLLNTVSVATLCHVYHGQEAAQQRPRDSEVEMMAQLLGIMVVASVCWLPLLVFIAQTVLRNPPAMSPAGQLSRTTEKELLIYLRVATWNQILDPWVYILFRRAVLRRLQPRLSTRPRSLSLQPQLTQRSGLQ

O=C(O)COc1cccc2c1OCCN2CCN(C(=O)c1ccccn1)c1ccc(Cl)cc1
Cmax [1]: 138 ng/mL
bioavailability [2]: 13%

Cc1ccc(N(CCN2CCC(OCC(=O)O)CC2)C(=O)c2ccccc2)cc1
Ki (Prostacyclin receptor): 0.99 µM
Ki [3]: > 50 µM
Ki [4]: > 50 µM
Ki [5]: > 50 µM
Ki [6]: > 50 µM
Ki [7]: > 50 µM
Ki (Thromboxane A2 receptor): > 50 µM
Cmax [1]: 1610 ng/mL
bioavailability [2]: 77%
